Measurements as given in US20030157516A1, “G protein coupled receptor” (priority 2000, published 2003).
“And” between values parts separate entries of the source, which are not always exact repeats. Equal entries are not always repeated.

What was measured:
C6 glioma = experiment: Preliminary [3H]adenine binding on wild-type cells
Experimental: (§1) A) Methods—[3H]Adenine binding experiments were performed to characterize wild type cell lines before transfection as well as transiently and permanently transfected cell lines. Membranes were thawed on ice and diluted in 50 mM HEPES buffer, pH 7.4 supplemented with 10 mM MgCl2 and 1 mM EGTA. […] Both assays were carried out in a final volume of 500 μl, using 18 μg of membrane protein for the transfected CHO cells and 30 μg of membrane protein for the wild type CHO cells for the saturation binding. For competition binding experiments, 15 and 50 μg of membrane protein was used for the transfected and wild type cells, respectively. The reaction was terminated by rapid filtration through Whatman GF/B filters using a Brandel multi-channel cell harvester (96 wells). The filters were washed three times with 3 ml ice cold 50 mM HEPES buffer, pH 7.4, transferred to liquid scintillation vials and 3 ml of scintillation fluid (Ultima Gold MV, Packard, Netherlands) was added. Samples were counted in a β-scintillation counter after at least 6 hours to permit the glass fiber filters to become uniformly translucent.
(§2) The assay conditions were identical to those for the transfected cells.

CHO = experiment: Preliminary [3H]adenine binding on wild-type cells; conditions: pool 1 and pool 2
Experimental: as §1, §2

Cos7 = experiment: Preliminary [3H]adenine binding on wild-type cells
Experimental: as §1, §2

HEK293 = experiment: Preliminary [3H]adenine binding on wild-type cells
Experimental: as §1, §2

NIH3T3 = experiment: Preliminary [3H]adenine binding on wild-type cells
Experimental: as §1, §2

[1] = biological target: T1, adenine binding rat receptor (Rattus norvegicus, UniProt Q7TN49); experiment: [3H]adenine saturation binding on CHO membranes transiently transfected; conditions: transfected cells
T1 construct: expressed in transfected cells; host or cells: CHO cells, transient, lipofectamine PLUS
T1 sequence (Q7TN49 1-304): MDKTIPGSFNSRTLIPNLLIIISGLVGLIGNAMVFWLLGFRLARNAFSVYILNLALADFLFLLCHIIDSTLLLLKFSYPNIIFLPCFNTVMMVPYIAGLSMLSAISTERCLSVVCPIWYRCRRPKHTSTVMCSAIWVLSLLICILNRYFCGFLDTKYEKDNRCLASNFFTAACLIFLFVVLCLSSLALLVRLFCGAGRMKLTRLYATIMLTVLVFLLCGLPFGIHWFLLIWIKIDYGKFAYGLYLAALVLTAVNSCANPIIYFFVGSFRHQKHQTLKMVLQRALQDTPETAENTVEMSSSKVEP
Experimental: (§3) The membranes were prepared as total particulate fractions. The cell lines were cultured to 906 confluency on 145 mm petri dishes and treated with 5 mM sodium butyrate, 24 hours before collection. The culturing medium was removed and the cells were washed twice with ice cold phosphate buffered saline (PBS without Ca^2+ and Mg^2+), scraped from the plates in 50 mM Tris-HCl buffer, pH 7.4, and collected by centrifugation (10 minutes at 16,000 RPM at 4° C.). The cell pellet was re-suspended in hypotonic 5 mM Tris-HCl buffer, pH 7.4, and homogenized with an Ultra Turrax homogenizer (Janker Kunkel, Germany). The homogenate was centrifuged at 18,000 RPM for 20 minutes at 4° C. The final pellet was re-suspended in 50 mM Tris-HCl buffer, pH 7.4 and stored in aliquots at −70° C. A protein determination was performed using the Bradford protein assay (Biorad, Germany) using bovine serum albumin (BSA) as standard.
as §1
Addition of Gpp-NHp blocks the high-affinity or agonist binding sites of GPCRs, so that only low-affinity sites are available.

wild type CHO cells [2] = experiment: [3H]adenine saturation binding on wild type CHO membranes; conditions: mean n=3
Experimental: as §3
A) Methods—[3H]Adenine binding experiments were performed to characterize wild type cell lines before transfection as well as transiently and permanently transfected cell lines. Membranes were thawed on ice and diluted in 50 mM HEPES buffer, pH 7.4 supplemented with 10 mM MgCl2 and 1 mM EGTA. […] Samples were counted in a β-scintillation counter after at least 6 hours to permit the glass fiber filters to become uniformly translucent. […]

wild type CHO cells [3] = experiment: cAMP measurements on wild type CHO cells; assay type: cell-based; conditions: wild type
Experimental: For permanently transfected CHO cells, cAMP measurements were performed using the indirect RIA kit from NEN (Belgium).
a) Methods: Two days before the experiment the cells were seeded out in a 96 well plate at a density required for approximately 90% confluence at the day of the experiment. After removal of the growth medium, the cells were washed twice with a controlled salt solution (CSS) containing 25 mM Tris-HCl, pH 7.4, 120 mM NaCl, 5.4 mM KCl, 0.8 mM MgCl2, 1.8 mM CaCl2, 15 mM glucose and 15 mg/l phenol red, with an addition of a phosphodiesterase inhibitor IBMX (3-isobutyl-1-methylxanthine) in a concentration of 1 mM and […]. Basal cAMP levels were determined in CSS containing these additives and maximally stimulated cAMP levels were determined in the presence of 50 μM forskolin. For testing agonistic activity, the compounds were incubated with the cells for 20 minutes at 37° C. The reaction was stopped by addition of ice cold HClO4 (1N) and stored at −20° C. After thawing the mixtures were neutralized with an equivalent amount of phosphate buffered KOH, left at 4° C. during 30 minutes to allow the salts to precipitate and centrifuged at 2,000 RPM for 5 minutes at 4° C.
For the quantitative determination of the cAMP levels, a 96-well Flashplate radioimmunoassay kit from NEN was used, according to the protocol of the supplier. The sigmoid concentration response curves (duplicate points) were analyzed using the GraphPad Prism program.

adenine binding GPCR = biological target: T2, adenine binding GPCR (Rattus norvegicus, UniProt Q7TN49); experiment: FLIPR Ca2+ transient assay, antagonism of 30 nM adenine challenge; assay type: cell-based; conditions: 15 minutes incubation with compound (30 μM to 30 pM), then challenge with 30 nM adenine
T2 construct: The full length reading frame was inserted into the mammalian expression vector pcDNA3; expressed in transfected cells; host or cells: HEK293 cells stably transfected with pLEC/Gqi or pLEC/Gqo
T2 sequence (Q7TN49 1-304): T1 sequence (Q7TN49 1-304)
Text: (§4) The full length reading frame was inserted into the mammalian expression vector pcDNA3 (Invitrogen, Carlsbad, Calif., U.S.A.) and the resulting expression construct was transiently transfected with the FuGENE 6 reagent (Roche Molecular Biochemicals, Mannheim, Germany) into HEK293 cells stably transfected (E. Bender, unpublished) with pLEC/Gqi or pLEC/Gqo (Molecular Devices, Sunnyvale, Calif., U.S.A.). The cells were loaded with Fluo-4 (Molecular Probes, Eugene, Oreg., U.S.A.) according to the recommendations of the supplier.
After a 15 minutes incubation at room temperature, the same cells were challenged with 30 nM adenine, to detect antagonistic properties of molecules added in the first round of superfusion.

[4] = biological target: T1, adenine binding rat receptor; experiment: [3H]adenine competition binding on CHO membranes transiently transfected; conditions: transfected cells, 15 nM [3H]adenine
Experimental: as §3, §1

wild type CHO cells [5] = experiment: [3H]adenine competition binding on wild type CHO membranes; conditions: 15 nM [3H]adenine
Experimental: as §3, with “The cell lines were cultured to 906 confluency on 145 mm petri dishes and treated with 5 mM sodium butyrate, 24 hours before collection.” left out
as §1, with “Membranes” for “A) Methods—[3H]Adenine binding experiments were performed to characterize wild type cell lines before transfection as well as transiently and permanently transfected cell lines. Membranes”

rat adenine binding GPCR = biological target: T3, rat adenine binding GPCR (Rattus norvegicus, UniProt Q7TN49); experiment: FLIPR Ca2+ transient assay, agonism, HEK293/Gq chimera cells transiently transfected with rat adenine binding GPCR/pcDNA3; assay type: cell-based; set-up: The full length reading frame was inserted into the mammalian expression vector pcDNA3; expressed in transfected cells; host or cells: HEK293 cells stably transfected with pLEC/Gqi or pLEC/Gqo; conditions: for agonistic effects on Ca2+ transients: concentrations ranging from 30 μM to 30 pM; for calcium transients elicited: HEK293/Gaqo cells, 3.3 μM
T3 sequence (Q7TN49 1-304): T1 sequence (Q7TN49 1-304)
Text: This assay is based around an instrument called a FLuorescence Imaging Plate Reader ((FLIPR®), Molecular Devices Corporation). In its most common configuration, it excites and measures fluorescence emitted by fluorescein-based dyes. It uses an argon-ion laser to produce high power excitation at 488 nm of a fluorophore, a system of optics to rapidly scan the over the bottom of a 96-/384-well plate and a sensitive, cooled CCD camera to capture the emitted fluorescence. It also contains a 96-/384-well pipetting head allowing the instrument to deliver solutions of test agents into the wells of a 96-/384-well plate. The FLIPR assay is designed to measure fluorescence signals from populations of cells before, during and after addition of compounds, in real time, from all 96-/384-wells simultaneously. […] As described below, calcium transients in cells transfected with adenine binding GPCR were measured using the FLIPR assay in order to measure activation of the receptors by various substrates in order to determine the natural ligand of the receptor.
as §4, with “supplier. […]” for “supplier.”
Using the FLIPR assay as above, calcium transients were measured in both sets of cells with the transients attributable to the novel GPCR measured as the difference between the two transients. Results are illustrated in FIG. 4. […]

antagonistic effect (adenine binding GPCR)	IC50 ([4]; mean of n experiments)	IC50 ([4]; single experiments)	Ki ([4]; single experiments)	agonistic effects on Ca2+ transients (rat adenine binding GPCR)	calcium transients elicited (rat adenine binding GPCR)	SMILES	pIC50 (wild type CHO cells [5]; mean of n experiments)	pIC50 (wild type CHO cells [5]; single experiments)	also measured
–	–	–	–	–	–	Nc1ncnc2nc[nH]c12 [[^3H]adenine]	–	–	[3H]adenine binding (C6 glioma): 839 fmoles/mg protein; [3H]adenine binding (CHO): 303 fmoles/mg protein (pool 1) and 583 fmoles/mg protein (pool 2); [3H]adenine binding (Cos7): 226 fmoles/mg protein; [3H]adenine binding (HEK293): 168 fmoles/mg protein; [3H]adenine binding (NIH3T3): 642 fmoles/mg protein; average saturation binding levels [1]: around 19 pmol/mg; Bmax ([1]; 100 μM Gpp-NHp, mean n=3): 17341 fmoles/mg protein; Kd ([1]; 100 μM Gpp-NHp, mean n=3): 61 nM; Kd ([1]; 100 μM Gpp-NHp, single experiments): 57 nM and 72 nM and 54 nM; Bmax ([1]; No Gpp-NHp, mean n=3): 18894 fmoles/mg protein; Kd ([1]; No Gpp-NHp, mean n=3): 24 nM; Bmax ([1]; No Gpp-NHp, single experiments): 25375 fmoles/mg protein and 17569 fmoles/mg protein and 13738 fmoles/mg protein; Kd ([1]; No Gpp-NHp, single experiments): 23 nM and 25 nM; Kd (wild type CHO cells [2]; 100 μM Gpp-NHp): 16 nM; Kd (wild type CHO cells [2]; No Gpp-NHp): 26 nM
–	–	–	–	–	–	C=C[C@@]1(C)CC(=O)[C@]2(O)[C@@]3(C)[C@@H](O)CCC(C)(C)[C@@H]3[C@H](O)[C@H](OC(C)=O)[C@@]2(C)O1 [forskolin]	–	–	cAMP level with Forskolin 50 μM (wild type CHO cells [3]; 0.5% hiFCS, induction): 25 pmol/well; cAMP level with Forskolin 50 μM (wild type CHO cells [3]; 0.5% hiFCS, no induction): 26 pmol/well; cAMP level with Forskolin 50 μM (wild type CHO cells [3]; 10% hiFCS, induction): 63 pmol/well; cAMP level with Forskolin 50 μM (wild type CHO cells [3]; 10% hiFCS, no induction): 107 pmol/well
did not elicit antagonistic effects	~100000 nM	> 100000 nM and 72400 nM	44600 nM	–	–	Nc1ncnc2c1ncn2[C@@H]1O[C@H](CO)[C@@H](O)[C@H]1O [Adenosine, adenosine]	<4	<4	agonism of nucleoside and nucleotide derivatives of adenine (rat adenine binding GPCR; at high concentrations (>3.3 μM)): weak partial agonism
did not elicit antagonistic effects	–	–	58.5 µM (2×) and 40.7 µM	No further agonistic effects	–	Nc1ncnc2c1ncn2[C@@H]1O[C@H](COP(=O)(O)OP(=O)(O)OP(=O)(O)O)[C@@H](O)[C@H]1O [ATP]	<4	<4	Ki ([4]; mean of n experiments): 52800 nM; pIC50 ([4]; mean of n experiments): 4.07; pIC50 ([4]; single experiments): 4.02 and 4.18
weak antagonistic effect	> 100000 nM	> 100000 nM	–	No further agonistic effects	could not be elicited	Nc1nc2nc[nH]c2c(=O)[nH]1 [Guanine, guanine]	<4	<4	–
did not elicit antagonistic effects	> 100000 nM	> 100000 nM	–	No further agonistic effects	could not be elicited	O=c1[nH]cnc2nc[nH]c12 [Hypoxanthine, hypoxanthine]	<4	<4	–
